# From PMC8840081, “Phenylalanine-Based AMPA Receptor Antagonist as the Anticonvulsant Agent with Neuroprotective Activity—In Vitro and In Vivo Studies” (Molecules, 2022)
# Columns and labels:
# [1] = oxygen radical absorbance capacity fluorescent (ORAC-FL) assay; details: Trolox equivalent, calculated at 5 µM of compounds and Trolox
# Experimental: The ORAC-FL was performed according to procedure described in the literature. The reagents used in this assay, TX, fluorescein and 2,2′-azobis(2-amidinopropane) dihydrochloride (AAPH), were purchased from Sigma-Aldrich, Inc., St. Louis, MO, USA. The prepared ORAC-FL reagent consisted of 0.3 μM of fluorescein and 100 µM of AAPH dissolved in PBS buffer. The compounds and the reference antioxidant TX were tested at the concentration 2.5 µM and the results were compared to the blank in which no antioxidant was present. The assays were performed in black 96-well plates. The fluorescence readings were taken by a microplate reader EnSpire (PerkinElmer, Waltham, MA, USA) every minute for a duration of 240 min. The excitation wavelength was 485 nm and the emission wavelength was 520 nm. The area under the fluorescence decay curve (AUC) was calculated next by GraphPad Prism™ software (version 5.01, San Diego, CA, USA). All measurements were performed in triplicate. The TX equivalent (TE) was calculated next using the following Equation (1):TE = [(AUCsample − AUCblank)/(AUCTX − AUCblank)] × [CTX/Csample](1)
# Human MAO-B = molecular target: T1, Human MAO-B (Homo sapiens, UniProt P27338); assay: MAO-B inhibition, Amplex Red Monoamine Oxidase kit; format: biochemical
# T1 construct: purchased Merck KGaA (Darmstadt, Germany)
# T1 sequence (P27338 1-520): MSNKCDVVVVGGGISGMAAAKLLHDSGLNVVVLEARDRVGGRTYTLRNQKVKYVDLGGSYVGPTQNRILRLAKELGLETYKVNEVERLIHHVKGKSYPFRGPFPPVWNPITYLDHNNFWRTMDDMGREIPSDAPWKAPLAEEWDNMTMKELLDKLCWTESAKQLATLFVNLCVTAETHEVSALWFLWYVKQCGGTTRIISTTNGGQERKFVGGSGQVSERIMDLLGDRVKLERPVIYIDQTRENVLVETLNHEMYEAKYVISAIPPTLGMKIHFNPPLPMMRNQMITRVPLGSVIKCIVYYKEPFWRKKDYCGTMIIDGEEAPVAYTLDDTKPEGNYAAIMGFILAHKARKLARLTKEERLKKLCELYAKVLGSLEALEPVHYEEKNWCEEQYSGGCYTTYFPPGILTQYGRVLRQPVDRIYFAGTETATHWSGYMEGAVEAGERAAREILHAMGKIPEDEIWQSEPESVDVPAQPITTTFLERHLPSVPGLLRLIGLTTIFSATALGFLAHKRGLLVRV
# Experimental: Human MAO-B was purchased from Merck KGaA (Darmstadt, Germany). The activity of compound 1 and 8 was measured in the presence of p-tyramine (200 μM). […] Firstly, inhibitors’ activity was measured in a concentration of 1 μM. […] For compounds that inhibited the enzyme by more than 50% further studies were conducted to obtain IC50 from concentration–response curves. All calculations were made in Microsoft Excel and GraphPadPrism software. All experiments were performed in duplicate and data are expressed as mean ± SEM.
# [2] = system: electrically induced seizures in mice; assay: maximal electroshock (MES) test; format: in vivo; details: 100 mg/kg i.p.
# Experimental: (§1) Behavioral experiments were carried out in male Albino Swiss (CD-1) mice weighing 18–22 g. The mice were kept in cages, in groups of 10 animals. They had free access to food and water before experiments, and were maintained at room temperature 22–24 °C, under 12:12 (light/dark) cycle. For the assays the animals were selected randomly. After the experiments the animals were euthanized by cervical dislocation. Experimental procedures for in vivo tests were approved by the Local Ethics Committee of the Jagiellonian University in Krakow (Approval No. 33/2018; release date: 1.02.2018) and the treatment of animals was performed in full accordance with ethical standards laid down in respective Polish and EU regulations (Directive 2010/63/EU).
# (§2) Oxaliplatin was purchased from Activate Scientific GmbH (Prien, Germany). PTZ and STZ were provided by Merck KGaA (Darmstadt, Germany). For the in vivo tests, the compound 1 was suspended in 1% Tween 80 solution (Polskie Odczynniki Chemiczne, Gliwice, Poland), then being administered intraperitoneally 1 h before tests. For the evaluation of anticonvulsant properties of the test compound, a fixed dose of 100 mg/kg, was used. Since many AEDs at lower doses are used as analgesic drugs, for pain tests the doses 10 and 30 mg/kg were selected.
# MES test was performed as described previously. […]
# [3] = system: 6-Hz psychomotor seizures in mice; assay: 6-Hz test; format: in vivo; details: 100 mg/kg i.p.
# Experimental: as §1, §2
# This test was performed according to Barton et al.. […]
# [4] = system: heat hyperalgesia in diabetic mice; assay: diabetic (STZ) neuropathic pain model, hot plate test; format: in vivo; details: 30 mg/kg i.p.
# Experimental: as §1
# Oxaliplatin was purchased from Activate Scientific GmbH (Prien, Germany). PTZ and STZ were provided by Merck KGaA (Darmstadt, Germany). […]
# To induce type I diabetes and diabetic neuropathic pain, mice were administered STZ, an alkylating antitumor drug that destroys insulin-secreting islet cells. […] Blood glucose levels were measured 1 day before (referred to as ‘day 0′) and repeatedly 1, 2 and 3 weeks after STZ injection using a blood glucose monitoring system (AccuChek Active, Roche, France). […]
# The effect of 1 on heat hyperalgesia was assessed using the hot plate test. […]
# native AMPA receptors = details: cited from earlier work
smiles,measurement,setting,value
NC(Cc1cc(-c2cc(O)ccc2O)c(Cl)c([N+](=O)[O-])c1)C(=O)O (centres unmarked) [Compound 1],ORAC (TE),[1],3.46 TE
same,maximum MAO-B inhibition attained,Human MAO-B; dose-dependent curve,52%
same,IC50,Human MAO-B; p-tyramine 200 μM,278 ± 29 nM
same,inhibition at 1 µM,"Human MAO-B; read-out: MAO-B inhibition, screening",> 50%
same,Mortality rate (%),[2],25%
same,"X/Y, number of mice protected (X) per number of mice tested (Y)",[2]; 1 h before test,0/4
same,Mortality rate (%),[3],0%
same,"X/Y, number of mice protected (X) per number of mice tested (Y)",[3]; 1 h before test,3/4
same,"antihyperalgesic activity, hot plate test (latency to pain reaction)",[4],antihyperalgesic activity was not observed
same,selectivity over NMDA and KA receptors,native AMPA receptors,high selectivity
same,Ki,"native AMPA receptors; native AMPA receptors, rat brain membranes, mean of three experiments, read-out: [3H]AMPA Ki",920 nM
